This is an account of results in patent publication US7527942B2, “Transcription amplification system for molecular imaging” (The Regents of the University of California, priority 2002, dated 2009).

For series [1] the following is noted: human subjects; cited from earlier work.
The test system of series [2] is LNCaP cells. Put plainly: Co-transfection luciferase assay with 10 nM R1881 (Example 2). It is filed as cell-based, human. The note with it: charcoal-stripped serum.
Procedure: We performed transient transfections 24 hours later using Tfx-50 (Promega) with a lipid:DNA ratio of 4:1. Each transfection mixture contained 0.5 μg of the effector and reporter plasmids or reporter plasmid alone with pGL3B carrier DNA. Methylenetrienolone (R1881; NEN Life Science Products, Boston, Mass.) was added to the medium at a concentration of 10 nM/well one hour following transfection, and the cells were incubated for 48 h. The cells were harvested and lysed using the passive lysis buffer provided in the assay kit for measuring FL activities (Dual-Reporter Luciferase Assay System, Promega).

SMILES strings stand for the structures.

`Nc1nc(=O)c2ncn(CCC(CO)C[18F])c2[nH]1` (stereo not drawn) [[^18F]FHBG, 9-(4-[18F]-fluoro-3-hydroxymethylbutyl)guanine]: the blood-brain-barrier penetration entry in series [1] is on record as “does not significantly cross the blood-brain-barrier”.
As for `CC(O)(CS(=O)(=O)c1ccc(F)cc1)C(=O)Nc1ccc(C#N)c(C(F)(F)F)c1` (stereo not drawn) [casodex, reference compound], in series [2], the “basal activity of the PSA enhancer constructs” value is on record as “further reduced”.
For the compound `O=c1[nH]c(=O)n([C@@H]2O[C@H](CO)[C@@H](O)[C@@H]2F)cc1[125I]` [[^124I]FIAU, 2′-fluoro-2′-deoxy-1-β-D-arabinofuranosyl-5-iodo-uracil], in series [1], the blood-brain-barrier penetration entry is given as “cannot penetrate the blood brain barrier”.
